Results as given in article PMC6359144 (International Journal of Molecular Sciences, 2019).
Entries after “also recorded” stand apart in the source; their conditions may differ. Like-named read-outs stand apart in the source and are kept apart here.

Assays:
518A2 melanoma cells [1] = test: MTT assay, 518A2 melanoma cells; format: cell-based, human; conditions: for IC50: Homo sapiens, MTT, mean ± SD of four experiments
Method: (§1) HT-29 (ACC-299), HCT-116 (ACC-581) and DLD-1 (ACC-278) colon carcinoma, MCF-7 (ACC-115) breast carcinoma, KB-V1 (ACC-149), 518A2 (Department of Radiotherapy and Radiobiology, University Hospital Vienna) melanoma and Ea.Hy926 (ATCC no. CRL-2922) HUVEC derived endothelial hybrid cells line were grown in Dulbecco’s Modified Eagle Medium (DMEM; Biochrom), high glucose supplemented with 10% (v/v) fetal bovine serum (FBS; Biochrom.) and 1% (v/v) Antibiotic-Antimycotic solution (anti-anti; Thermo Scientific). HDFa human dermal fibroblasts (ATCC: PCS-201-012™) were grown in DMEM supplemented with 10% FBS, 1% anti-anti and 2 mM glutamine. The cells were incubated at 37 °C, 5% CO2, 95% humidified atmosphere. By repeated addition of topotecan or vinblastine at the maximum tolerated dose to the cell medium of MCF-7 and KB-V1 cells, the cells were rendered multidrug-resistant, indicated as MCF-7^Topo and KB-V1^Vbl, respectively. They were serially passaged following trypsinization by using 0.05% trypsin/0.02% EDTA (Biochrom). Mycoplasma contamination was routinely monitored, and only mycoplasma–free cultures were used.
(§2) MTT [3-(4,5-dimethylthiazol-2-yl)-2,5-diphenyltetrazolium bromide] (ABCR) was used to determine the cytotoxicity of test compounds as previously described. Briefly, HDFa human dermal fibroblasts and Ea.Hy926 endothelial hybrid cells (both 1 × 10^5 cells/mL, 100 µL/well), 518A2 melanoma, KB-V1^Vbl cervix carcinoma, MCF-7^Topo breast carcinoma, HT-29, DLD-1 and HCT-116 colon carcinoma (all 5 × 10^4 cells/mL, 100 µL/well) were grown in 96-well culture plates for 24 h. Then, various concentrations of the test compounds were added and the cells were incubated for 24-72 h at 37 °C. After adding 12.5 µL of a 0.5% MTT solution in PBS (final concentration 0.05%) to cell medium, microplates were incubated for 2 h and subsequently swiftly turned to discard the medium. The precipitate of formazan crystals was then dissolved in a 10% solution of SDS in DMSO containing 0.6% acetic acid. To ensure complete dissolution of formazan, microplates were incubated for at least 4 h at 37 °C. Finally, the absorbance at λ = 570 nm (formazan) and 630 nm (background) was measured using a microplate reader (Tecan F200). All experiments were carried out in quadruplicate and the percentage of viable cells was calculated as the mean ± SD with controls set to 100%. Selected graphs of MTT assays can be found in the Supporting Information (Figure S8).

[2] = test system: Ea.Hy926 endothelial hybrid cells; test: MTT assay, Ea.Hy926 endothelial hybrid cells; format: cell-based; conditions: Homo sapiens, EA.hy 926, read-out: IC50 Ea.Hy926 (72 h)
Method: as §1, §2

[3] = test system: HT-29 colon carcinoma cells; test: MTT assay, HT-29 colon carcinoma cells; format: cell-based, human; conditions: Homo sapiens, MTT
Method: as §1, §2

518A2 melanoma cells [4] = test: Cell cycle analysis by flow cytometry after PI staining; format: cell-based, human; conditions: 24 h; for cell cycle arresting effect: 518A2 cells, FACS
Method: The 518A2 melanoma cells (3 mL/well; 5 × 10^4 cells/mL) were grown on 6-well tissue culture plates for 24 h. After treatment with 4d (150, and 200 nM), 4e (0.8, and 1 µM), 4f (2, and 3 µM), or DMSO (control) for another 24 h, cells were fixed (70% EtOH, 24 h, 4 °C), washed with PBS and incubated with propidium iodide (PI; Carl Roth) staining solution (50 µg/mL PI, 0.1% sodium citrate, 50 µg/mL RNase A in PBS) for 30 min at 37 °C. […] The percentages of cells in the different phases of the cell cycle (G1, S and G2/M phase) were determined using the CXP Analysis software (Beckmann Coulter). The percentage of apoptotic cells was derived from sub-G1 peaks. Data was normally distributed for each group (Shapiro–Wilk test, p > 0.05). Since homogeneity of variance (Levene’s test, p < 0.05) was violated, a correction was calculated for Anova (Welch test).

[5] = test system: MCF-7^Topo breast adenocarcinoma cells; test: MTT assay, MCF-7^Topo breast carcinoma cells; format: cell-based; conditions: Homo sapiens, MCF7/Topo, read-out: IC50 MCF-7^Topo (72 h)
Method: as §1, §2

[6] = test system: microtubule cytoskeleton in 518A2 melanoma cells; test: Immunofluorescence staining of microtubule cytoskeleton, 518A2 cells; format: cell-based, human; conditions: 24 h
Method: 518A2 melanoma cells (5 × 10^4 cells/mL, 500 µL/well) or Ea.Hy926 endothelial hybrid cells (7.5 × 10^4 cells/mL, 500 µL/well) were seeded in 24-well plates on small glass coverslips and grown for 24 h. Then, the cells were exposed to the test compounds for 24 h. After washing the cells once with PBS, they were fixed in 3.7% formaldehyde in PBS (20 min, rt), and permeabilized and blocked in 1% BSA and 0.1% triton X-100 in PBS (30 min, rt). Then, the cells were incubated with monoclonal mouse anti-alpha-tubulin antibody (1 h, 37 °C). […] Then, the cells were washed for three times with PBS and once with water. The glass coverslips were mounted in 4-88 based mounting medium supplemented with 1 µg/mL DAPI for counterstaining the nuclei and 2.5% DABCO. Alterations of the microtubule were documented by a Zeiss Imager A1 AX10 fluorescence microscope (400× magnification).

[7] = target: T1, purified pig brain tubulin (Sus scrofa, UniProt P02550+P02554); test: Turbidimetric cell-free tubulin polymerization assay; format: biochemical; conditions: 10 µM, 340 nm
T1 construct: using purified pig brain tubulin; from tissue; host or cells: pig brain
Method: An amount of 50 µL of Brinkley’s buffer 80 (BRB80) supplemented with 20% glycerol and 3 mM GTP was given in a black 96-well half-area plate with clear bottom. Then, test compounds 4d–f (final concentration: 5 µM, or 10 µM) or vehicle (DMSO) were added. After adding 50 µL tubulin in BRB80 (10 mg/mL) was pipetted in the wells and immediately placed in a pre-heated microplate reader (Tecan). The polymerization was determined turbidimetrically at 37 °C by measuring the absorption at 340 nm for 120 min in intervals of 5 min. Values were normally distributed for each group (Shapiro–Wilk test, p > 0.05) and there was homogeneity of variance (Levene’s test, p > 0.05).

[8] = 518A2, read-out: IC50 518A2 (72 h), 72 h
[9] = 518A2, 24 h, read-out: IC50 518A2 (24 h)
[10] = HT-29, read-out: IC50 HT-29 (72 h), 72 h
[11] = HT-29, 24 h, read-out: IC50 HT-29 (24 h)

T1 sequence (P02554 whole entry): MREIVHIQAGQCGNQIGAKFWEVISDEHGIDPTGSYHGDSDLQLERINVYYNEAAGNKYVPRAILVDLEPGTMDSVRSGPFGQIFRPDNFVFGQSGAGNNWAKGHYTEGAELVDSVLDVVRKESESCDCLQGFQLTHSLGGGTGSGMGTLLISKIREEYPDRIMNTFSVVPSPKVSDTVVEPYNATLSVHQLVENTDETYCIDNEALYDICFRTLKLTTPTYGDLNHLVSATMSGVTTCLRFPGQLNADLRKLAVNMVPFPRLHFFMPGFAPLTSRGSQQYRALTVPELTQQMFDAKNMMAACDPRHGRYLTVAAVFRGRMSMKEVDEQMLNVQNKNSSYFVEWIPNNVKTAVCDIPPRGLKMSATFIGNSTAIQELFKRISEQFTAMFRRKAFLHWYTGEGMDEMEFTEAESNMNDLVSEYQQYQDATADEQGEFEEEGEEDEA
T1 sequence (P02550 whole entry): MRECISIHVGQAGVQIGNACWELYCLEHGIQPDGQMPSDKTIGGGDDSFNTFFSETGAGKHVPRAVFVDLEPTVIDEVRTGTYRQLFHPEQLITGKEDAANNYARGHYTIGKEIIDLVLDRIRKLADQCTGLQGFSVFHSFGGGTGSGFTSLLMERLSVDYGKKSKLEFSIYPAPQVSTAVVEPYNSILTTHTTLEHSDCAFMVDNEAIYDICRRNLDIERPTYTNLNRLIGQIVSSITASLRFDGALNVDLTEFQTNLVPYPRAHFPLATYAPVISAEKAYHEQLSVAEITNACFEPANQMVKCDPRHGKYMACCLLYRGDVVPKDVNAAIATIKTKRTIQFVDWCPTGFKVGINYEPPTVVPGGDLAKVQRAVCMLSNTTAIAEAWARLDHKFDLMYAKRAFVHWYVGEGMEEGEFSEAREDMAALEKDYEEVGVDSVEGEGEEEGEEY

Row | Structure (SMILES) | IC50 (518A2 melanoma cells [1]; [8]) [nM] | IC50 (518A2 melanoma cells [1]; [9]) [nM] | IC50 [2] [nM] | IC50 [3, 10] [nM] | IC50 [3, 11] [nM] | cell cycle arresting effect (518A2 melanoma cells [4]) | IC50 [5] [µM] | inhibition of tubulin polymerization [7] | further results
1 | COc1ccc(-c2ocnc2-c2cc(Br)c(OC)c(OC)c2)cc1OCCCC(=O)NO [4d, N-Hydroxy-4-[1-methoxy-4-(4’-(3’’-bromo-4’’,5’’-dimethoxyphenyl)oxazol-5’-yl)-2-phenoxy]butanamide] | 110 ± 10 | 710 ± 50 | 18 ± 4 | 1400 ± 200 | 1300 ± 300 | accumulation of 518A2 cells in G2/M phase | 2.8 ± 0.3 | inhibited the polymerization of pig brain tubulin nearly completely; also recorded: significant inhibition of tubulin polymerization | IC50 after 72 h compared with IC50 after 24 h (518A2 melanoma cells [1]; 518A2 melanoma cells, fold lower): about eight-fold; cells in G1 (518A2 melanoma cells [4]; 0.2 µM): 33.9 ± 3.4%; cells in G2/M (518A2 melanoma cells [4]; 0.2 µM): 35.4 ± 2.4%; cells in S (518A2 melanoma cells [4]; 0.2 µM): 16.3 ± 1.1%; cells in Sub-G1 (518A2 melanoma cells [4]; 0.2 µM): 14.4 ± 2.8%; effect on microtubule cytoskeleton ([6]; 0.5 µM): complete disruption of the microtubule cytoskeleton
2 | COc1ccc(-c2ocnc2-c2cc(Br)c(OC)c(OC)c2)cc1OCCCCC(=O)NO [4e, N-Hydroxy-5-[1-methoxy-4-(4’-(3’’-bromo-4’’,5’’-dimethoxyphenyl)oxazol-5’-yl)-2-phenoxy]pentanamide] | 800 ± 70 | 2400 ± 300 | 660 ± 10 | 1900 ± 200 | 2100 ± 600 | accumulation of 518A2 cells in G2/M phase | 3.4 ± 0.2 | merely moderate inhibitory effect | cells in G1 (518A2 melanoma cells [4]; 0.8 µM): 43.1 ± 1.3%; cells in G2/M (518A2 melanoma cells [4]; 0.8 µM): 32.6 ± 1.7%; cells in S (518A2 melanoma cells [4]; 0.8 µM): 19.2 ± 0.7%; cells in Sub-G1 (518A2 melanoma cells [4]; 0.8 µM): 5.1 ± 1.2%; cells in G1 (518A2 melanoma cells [4]; 1 µM): 35.4 ± 1.1%; cells in G2/M (518A2 melanoma cells [4]; 1 µM): 34.9 ± 3.5%; cells in S (518A2 melanoma cells [4]; 1 µM): 19.0 ± 0.3%; cells in Sub-G1 (518A2 melanoma cells [4]; 1 µM): 10.8 ± 4.4%; effect on microtubule cytoskeleton ([6]; […]): eroded the highly organized microtubule network, but left some intact clusters
3 | COc1ccc(-c2ocnc2-c2cc(Br)c(OC)c(OC)c2)cc1OCCCCCC(=O)NO [4f, N-Hydroxy-6-[1-methoxy-4-(4’-(3’’-bromo-4’’,5’’-dimethoxyphenyl)oxazol-5’-yl)-2-phenoxy]hexanamide] | 6400 ± 400 | 7600 ± 200 | 410 ± 40 | 14200 ± 1600 | 6600 ± 600 | induced a G1 phase arrest | 8.3 ± 0.7 | virtually none | cells in G1 (518A2 melanoma cells [4]; 2 µM): 53.9 ± 0.8%; cells in G2/M (518A2 melanoma cells [4]; 2 µM): 22.2 ± 0.5%; cells in S (518A2 melanoma cells [4]; 2 µM): 18.3 ± 0.7%; cells in Sub-G1 (518A2 melanoma cells [4]; 2 µM): 5.6 ± 0.8%; cells in G1 (518A2 melanoma cells [4]; 3 µM): 54.2 ± 0.5%; cells in G2/M (518A2 melanoma cells [4]; 3 µM): 22.5 ± 0.3%; cells in S (518A2 melanoma cells [4]; 3 µM): 16.9 ± 0.6%; cells in Sub-G1 (518A2 melanoma cells [4]; 3 µM): 6.3 ± 0.9%; effect on microtubule cytoskeleton ([6]; 4 µM): did not affect the microtubule cytoskeleton
